Measured values as given in ChEMBL document CHEMBL4190187, “Discovery of pyrazolopyrimidine derivatives as novel inhibitors of ataxia telangiectasia and rad3 related protein (ATR)” (Bioorg Med Chem Lett, 2017).

Experiments:
[1] = biological target: Tyrosine-protein kinase ITK/TSK (Homo sapiens) (UniProt Q08881); test: Inhibition of recombinant human ITK (352 to 617 residues) at 1 uM using myelin basic protein as substrate after 40 mins in presence of [gamma-33P]ATP by scintillation counting method
[2] = system: Fibroblast growth factor receptor 1 (Homo sapiens), P11362 [V561M]; test: Inhibition of recombinant human FGFR1 V561M mutant (456 to 765 residues) at 1 uM using GGEEEEYFELVKKKK as substrate after 40 mins in presence of [gamma-33P]ATP by scintillation counting method
[3] = system: PI3-kinase p110-alpha/p85-alpha (Homo sapiens), P27986+P42336 [E542K]; test: Inhibition of recombinant full-length human p110a E542K mutant/p85a at 1 uM using phosphatidylinositol 4,5-bisphosphate as substrate after 40 mins in presence of [gamma-33P]ATP by scintillation counting method; format: protein-complex assay
[4] = biological target: G protein-coupled receptor kinase 5 (Homo sapiens) (UniProt P34947); test: Inhibition of recombinant full-length human GRK5 at 1 uM using casein as substrate after 40 mins in presence of [gamma-33P]ATP by scintillation counting method
Sequence of G protein-coupled receptor kinase 5 (Homo sapiens) (P34947 whole entry, looked up): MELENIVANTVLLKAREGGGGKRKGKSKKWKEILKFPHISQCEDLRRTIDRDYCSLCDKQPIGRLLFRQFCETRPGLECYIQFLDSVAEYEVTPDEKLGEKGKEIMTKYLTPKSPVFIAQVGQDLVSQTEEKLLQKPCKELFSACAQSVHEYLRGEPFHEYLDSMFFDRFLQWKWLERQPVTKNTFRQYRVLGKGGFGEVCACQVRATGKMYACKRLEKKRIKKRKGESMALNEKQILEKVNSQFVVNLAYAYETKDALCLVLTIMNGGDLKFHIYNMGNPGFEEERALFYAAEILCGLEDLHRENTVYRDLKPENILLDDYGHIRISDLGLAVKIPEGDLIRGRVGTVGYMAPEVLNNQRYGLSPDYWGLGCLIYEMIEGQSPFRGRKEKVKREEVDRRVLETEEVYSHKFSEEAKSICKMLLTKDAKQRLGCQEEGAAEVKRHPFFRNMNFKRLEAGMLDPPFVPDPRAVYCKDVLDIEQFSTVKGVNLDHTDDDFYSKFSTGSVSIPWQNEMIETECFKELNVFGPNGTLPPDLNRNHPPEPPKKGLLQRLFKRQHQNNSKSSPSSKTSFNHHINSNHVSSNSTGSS

[5] = biological target: eIF-2-alpha kinase GCN2 (Homo sapiens) (UniProt Q9P2K8); test: Inhibition of recombinant full-length human GCN2 at 1 uM using RSRSRSRSRSRSRSR as substrate after 40 mins in presence of [gamma-33P]ATP by scintillation counting method
[6] = biological target: CDK12/Cyclin K (Homo sapiens) (UniProt O75909+Q9NYV4); test: Inhibition of recombinant full-length human CDK12/Cyclin K at 1 uM using RSRSRSRSRSRSRSR as substrate after 120 mins in presence of [gamma-33P]ATP by scintillation counting method; format: protein-complex assay
[7] = biological target: Serine/threonine-protein kinase SIK1 (Homo sapiens) (UniProt P57059); test: Inhibition of recombinant human SIK (1 to 281 residues) at 1 uM using AMARAASAAALARRR as substrate after 40 mins in presence of [gamma-33P]ATP by scintillation counting method
[8] = system: Platelet-derived growth factor receptor alpha (Homo sapiens), P16234 [V561D]; test: Inhibition of recombinant human PDGFRalpha V561D mutant (550 to end residues) at 1 uM using GGMEDIYFEFMGGKKK as substrate after 40 mins in presence of [gamma-33P]ATP by scintillation counting method
[9] = biological target: Protein kinase C zeta type (Homo sapiens) (UniProt Q05513); test: Inhibition of recombinant human PKCzeta (2 to end residues) at 1 uM using ERMRPRKRQGSVRRRV as substrate after 40 mins in presence of [gamma-33P]ATP by scintillation counting method
[10] = biological target: Tyrosine-protein kinase Lyn (Homo sapiens) (UniProt P07948); test: Inhibition of recombinant full-length human Lyn at 1 uM using poly(Glu,Tyr) 4:1 as substrate after 40 mins in presence of [gamma-33P]ATP by scintillation counting method
Sequence of Tyrosine-protein kinase Lyn (Homo sapiens) (P07948 2-512 limits assumed): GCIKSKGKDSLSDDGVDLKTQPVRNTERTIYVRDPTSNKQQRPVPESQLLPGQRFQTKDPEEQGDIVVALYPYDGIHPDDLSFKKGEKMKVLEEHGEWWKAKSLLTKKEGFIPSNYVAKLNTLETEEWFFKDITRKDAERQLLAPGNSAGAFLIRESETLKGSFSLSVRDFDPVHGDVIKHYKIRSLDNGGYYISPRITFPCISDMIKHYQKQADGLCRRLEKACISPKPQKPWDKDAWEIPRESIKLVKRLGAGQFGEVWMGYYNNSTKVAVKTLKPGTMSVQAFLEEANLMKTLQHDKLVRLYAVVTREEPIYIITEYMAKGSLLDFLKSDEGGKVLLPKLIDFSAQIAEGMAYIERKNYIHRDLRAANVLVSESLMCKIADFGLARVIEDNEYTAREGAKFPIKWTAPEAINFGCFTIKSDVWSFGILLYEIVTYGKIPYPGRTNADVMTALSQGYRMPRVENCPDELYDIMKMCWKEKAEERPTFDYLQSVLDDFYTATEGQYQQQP

[11] = biological target: Phosphatidylinositol 4-phosphate 5-kinase type-1 gamma (Homo sapiens) (UniProt O60331); test: Inhibition of recombinant full-length human PIP5K1gamma at 1 uM using phosphatidylinositol 4-phosphate/phosphatidylserine as substrate after 40 mins in presence of [gamma-33P]ATP by scintillation counting method
Sequence of Phosphatidylinositol 4-phosphate 5-kinase type-1 gamma (Homo sapiens) (O60331 whole entry): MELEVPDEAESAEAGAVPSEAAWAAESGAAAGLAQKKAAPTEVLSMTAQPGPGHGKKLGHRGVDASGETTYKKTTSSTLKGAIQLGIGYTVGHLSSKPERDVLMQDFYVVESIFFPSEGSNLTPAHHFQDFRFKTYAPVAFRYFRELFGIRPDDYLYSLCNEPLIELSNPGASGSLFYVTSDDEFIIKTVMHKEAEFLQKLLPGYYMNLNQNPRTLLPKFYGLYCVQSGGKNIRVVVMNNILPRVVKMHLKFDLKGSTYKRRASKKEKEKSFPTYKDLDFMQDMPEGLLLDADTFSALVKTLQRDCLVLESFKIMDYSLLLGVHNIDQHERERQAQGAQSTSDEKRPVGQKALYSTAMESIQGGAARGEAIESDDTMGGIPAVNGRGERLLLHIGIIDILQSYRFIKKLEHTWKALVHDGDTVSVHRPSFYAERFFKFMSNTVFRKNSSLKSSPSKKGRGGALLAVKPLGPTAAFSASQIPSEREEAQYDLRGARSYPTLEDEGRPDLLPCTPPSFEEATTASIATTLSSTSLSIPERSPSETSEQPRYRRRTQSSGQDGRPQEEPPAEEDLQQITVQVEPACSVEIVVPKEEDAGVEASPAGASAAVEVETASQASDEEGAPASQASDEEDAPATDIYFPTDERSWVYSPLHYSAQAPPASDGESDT

[12] = Half life in mouse at 10 mg/kg, po; format: ADME, organism-based; conditions: in vivo
[13] = biological target: Tyrosine-protein kinase ABL2 (Homo sapiens) (UniProt P42684); test: Inhibition of recombinant human ARG (38 to end residues) at 1 uM using EAIYAAPFAKKK as substrate after 40 mins in presence of [gamma-33P]ATP by scintillation counting method
[14] = biological target: Mitogen-activated protein kinase kinase kinase kinase 5 (Homo sapiens) (UniProt Q9Y4K4); test: Inhibition of recombinant full-length human MAP4K5 at 1 uM using myelin basic protein as substrate after 40 mins in presence of [gamma-33P]ATP by scintillation counting method
[15] = biological target: MAP kinase-activated protein kinase 3 (Homo sapiens) (UniProt Q16644); test: Inhibition of recombinant human MAPKAPK3 (2 to end residues) at 1 uM using KKLNRTLSVA as substrate after 40 mins in presence of [gamma-33P]ATP by scintillation counting method
Sequence of MAP kinase-activated protein kinase 3 (Homo sapiens) (Q16644 whole entry, looked up): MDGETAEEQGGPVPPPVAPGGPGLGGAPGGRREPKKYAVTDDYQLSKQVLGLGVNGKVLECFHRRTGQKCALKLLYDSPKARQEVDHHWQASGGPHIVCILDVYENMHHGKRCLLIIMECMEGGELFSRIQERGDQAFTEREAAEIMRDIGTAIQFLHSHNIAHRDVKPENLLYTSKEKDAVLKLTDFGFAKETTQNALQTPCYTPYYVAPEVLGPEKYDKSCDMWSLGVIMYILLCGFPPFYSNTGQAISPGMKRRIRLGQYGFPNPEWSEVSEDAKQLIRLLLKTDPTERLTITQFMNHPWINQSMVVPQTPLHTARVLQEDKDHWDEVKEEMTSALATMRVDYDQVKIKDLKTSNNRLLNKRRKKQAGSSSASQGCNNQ

[16] = biological target: Tyrosine-protein kinase receptor TYRO3 (Homo sapiens) (UniProt Q06418); test: Inhibition of recombinant human Rse (451 to end residues) at 1 uM using KVEKIGEGTYGVVYK as substrate after 40 mins in presence of [gamma-33P]ATP by scintillation counting method
Sequence of Tyrosine-protein kinase receptor TYRO3 (Homo sapiens) (Q06418 whole entry, the tested form may be a part): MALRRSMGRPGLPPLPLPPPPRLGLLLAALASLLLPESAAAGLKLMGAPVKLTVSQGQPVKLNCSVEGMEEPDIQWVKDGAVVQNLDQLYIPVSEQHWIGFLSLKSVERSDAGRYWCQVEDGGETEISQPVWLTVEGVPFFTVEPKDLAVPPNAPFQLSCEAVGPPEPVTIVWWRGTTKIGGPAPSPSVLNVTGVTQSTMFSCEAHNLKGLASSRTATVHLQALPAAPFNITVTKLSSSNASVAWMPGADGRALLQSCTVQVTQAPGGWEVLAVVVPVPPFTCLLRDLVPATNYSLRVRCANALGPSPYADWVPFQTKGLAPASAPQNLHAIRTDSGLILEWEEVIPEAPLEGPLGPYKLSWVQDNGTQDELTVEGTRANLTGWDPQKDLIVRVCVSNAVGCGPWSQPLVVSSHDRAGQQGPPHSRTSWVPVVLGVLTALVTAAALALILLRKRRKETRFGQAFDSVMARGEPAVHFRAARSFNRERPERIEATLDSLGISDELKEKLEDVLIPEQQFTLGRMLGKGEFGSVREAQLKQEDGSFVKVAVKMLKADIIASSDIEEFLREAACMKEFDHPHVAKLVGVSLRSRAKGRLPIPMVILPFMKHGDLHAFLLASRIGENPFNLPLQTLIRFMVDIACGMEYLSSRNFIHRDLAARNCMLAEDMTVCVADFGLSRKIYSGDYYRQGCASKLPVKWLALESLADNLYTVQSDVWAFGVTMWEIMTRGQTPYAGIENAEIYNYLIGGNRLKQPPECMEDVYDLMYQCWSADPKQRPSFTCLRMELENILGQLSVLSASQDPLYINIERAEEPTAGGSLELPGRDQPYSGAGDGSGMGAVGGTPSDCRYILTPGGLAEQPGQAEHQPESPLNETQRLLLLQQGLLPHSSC

[17] = biological target: Ephrin type-A receptor 2 (Homo sapiens) (UniProt P29317); test: Inhibition of recombinant human EPHA2 (596 to 900 residues) at 1 uM using poly(Glu,Tyr) 4:1 as substrate after 40 mins in presence of [gamma-33P]ATP by scintillation counting method
Sequence of Ephrin type-A receptor 2 (Homo sapiens) (P29317 whole entry, the tested form may be a part): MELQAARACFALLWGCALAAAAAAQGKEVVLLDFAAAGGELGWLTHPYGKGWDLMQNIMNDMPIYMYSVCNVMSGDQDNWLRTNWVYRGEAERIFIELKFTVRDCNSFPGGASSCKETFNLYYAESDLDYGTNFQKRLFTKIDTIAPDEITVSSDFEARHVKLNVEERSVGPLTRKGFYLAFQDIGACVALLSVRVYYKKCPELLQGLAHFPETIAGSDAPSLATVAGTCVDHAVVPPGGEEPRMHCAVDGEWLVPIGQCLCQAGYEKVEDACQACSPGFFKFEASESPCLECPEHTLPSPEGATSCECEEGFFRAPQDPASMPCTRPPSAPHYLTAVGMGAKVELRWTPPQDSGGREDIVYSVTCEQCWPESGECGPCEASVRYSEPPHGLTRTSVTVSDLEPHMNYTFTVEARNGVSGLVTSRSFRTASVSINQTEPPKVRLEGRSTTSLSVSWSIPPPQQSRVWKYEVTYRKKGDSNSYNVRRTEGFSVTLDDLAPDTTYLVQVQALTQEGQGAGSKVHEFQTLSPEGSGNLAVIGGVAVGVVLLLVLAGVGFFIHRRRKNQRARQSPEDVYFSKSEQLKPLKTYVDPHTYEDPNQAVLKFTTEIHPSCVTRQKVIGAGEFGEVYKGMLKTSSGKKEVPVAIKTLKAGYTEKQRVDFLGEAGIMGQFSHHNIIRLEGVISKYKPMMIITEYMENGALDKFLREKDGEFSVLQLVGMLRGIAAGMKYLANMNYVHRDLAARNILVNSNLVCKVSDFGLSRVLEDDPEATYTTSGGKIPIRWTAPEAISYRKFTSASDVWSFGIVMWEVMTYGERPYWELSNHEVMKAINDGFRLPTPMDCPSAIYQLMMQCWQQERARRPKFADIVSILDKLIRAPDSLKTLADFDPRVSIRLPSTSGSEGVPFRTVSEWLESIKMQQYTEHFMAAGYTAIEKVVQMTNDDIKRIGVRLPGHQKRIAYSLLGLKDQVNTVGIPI

[18] = biological target: Tau-tubulin kinase 1 (Homo sapiens) (UniProt Q5TCY1); test: Inhibition of recombinant human TTBK1 (1 to 479 residues) at 1 uM using casein as substrate after 40 mins in presence of [gamma-33P]ATP by scintillation counting method
[19] = biological target: Serine/threonine-protein kinase SIK2 (Homo sapiens) (UniProt Q9H0K1); test: Inhibition of recombinant human SIK2 (1 to 276 residues) at 1 uM using KKKVSRSGLYRSPSMPENLNRPR as substrate after 40 mins in presence of [gamma-33P]ATP by scintillation counting method
Sequence of Serine/threonine-protein kinase SIK2 (Homo sapiens) (Q9H0K1 whole entry, looked up, the tested form may be a part): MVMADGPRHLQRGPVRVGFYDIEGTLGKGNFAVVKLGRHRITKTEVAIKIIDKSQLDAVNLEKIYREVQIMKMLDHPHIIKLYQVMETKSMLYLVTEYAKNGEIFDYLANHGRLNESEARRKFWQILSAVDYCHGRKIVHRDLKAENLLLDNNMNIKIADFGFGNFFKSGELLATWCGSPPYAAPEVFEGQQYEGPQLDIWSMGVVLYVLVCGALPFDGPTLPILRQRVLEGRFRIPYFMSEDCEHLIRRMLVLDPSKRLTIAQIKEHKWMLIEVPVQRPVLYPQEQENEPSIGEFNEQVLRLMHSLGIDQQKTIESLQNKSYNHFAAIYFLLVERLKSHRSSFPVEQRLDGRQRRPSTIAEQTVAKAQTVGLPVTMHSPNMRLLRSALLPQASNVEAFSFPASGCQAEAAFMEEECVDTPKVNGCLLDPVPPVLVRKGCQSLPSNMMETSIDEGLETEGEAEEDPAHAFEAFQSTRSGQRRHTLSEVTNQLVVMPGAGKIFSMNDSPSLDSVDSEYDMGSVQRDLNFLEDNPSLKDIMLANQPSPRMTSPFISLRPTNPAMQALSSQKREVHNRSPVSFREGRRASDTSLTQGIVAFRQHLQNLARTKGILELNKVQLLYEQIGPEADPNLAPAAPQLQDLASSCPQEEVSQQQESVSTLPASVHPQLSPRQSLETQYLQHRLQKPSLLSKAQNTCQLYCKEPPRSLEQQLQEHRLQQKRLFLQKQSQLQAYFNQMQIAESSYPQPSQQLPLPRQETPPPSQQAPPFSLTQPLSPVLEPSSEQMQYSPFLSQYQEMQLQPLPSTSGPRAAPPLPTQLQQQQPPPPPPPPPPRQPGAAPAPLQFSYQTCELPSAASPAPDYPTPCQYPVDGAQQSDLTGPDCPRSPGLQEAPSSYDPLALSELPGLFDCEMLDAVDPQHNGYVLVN

[20] = biological target: Tyrosine-protein kinase SYK (Homo sapiens) (UniProt P43405); test: Inhibition of recombinant full-length human Syk at 1 uM using poly(Glu,Tyr) 4:1 as substrate after 40 mins in presence of [gamma-33P]ATP by scintillation counting method
[21] = biological target: Dual specificity protein kinase CLK2 (Homo sapiens) (UniProt P49760); test: Inhibition of recombinant human CLK2 (138 to end residues) at 1 uM using YRRAAVPPSPSLSRHSSPHQS(p)EDEEE as substrate after 40 mins in presence of [gamma-33P]ATP by scintillation counting method
[22] = system: Hepatocyte growth factor receptor (Homo sapiens), P08581 [Y1248H]; test: Inhibition of recombinant human Met Y1248H mutant (974 to end residues) at 1 uM using KKKGQEEEYVFIE as substrate after 40 mins in presence of [gamma-33P]ATP by scintillation counting method
[23] = biological target: Leucine-rich repeat serine/threonine-protein kinase 2 (Homo sapiens) (UniProt Q5S007); test: Inhibition of recombinant human LRRK2 (970 to end residues) at 1 uM using RLGRDKYKTLRQIRQ as substrate after 40 mins in presence of [gamma-33P]ATP by scintillation counting method
[24] = system: Epidermal growth factor receptor (Homo sapiens), P00533 [T790M]; test: Inhibition of recombinant human EGFR T790M mutant (696 to end residues) at 1 uM using GGMEDIYFEFMGGKKK as substrate after 40 mins in presence of [gamma-33P]ATP by scintillation counting method

CS(=O)(=O)c1ccc(-n2nc(-c3cnc4[nH]ccc4c3)c3c(N)ncnc32)cc1
inhibition [1]: -9% | inhibition [2]: 12% | inhibition [3]: 7% | inhibition [4]: -1% | inhibition [5]: 2% | inhibition [6]: -5% | inhibition [7]: 35% | inhibition [8]: 66% | inhibition [9]: 3% | inhibition [10]: 40% | inhibition [11]: 3% | half-life [12]: 2.28 h | inhibition [13]: 61% | inhibition [14]: 1% | inhibition [15]: -1% | inhibition [16]: 4% | inhibition [17]: 9% | inhibition [18]: 11% | inhibition [19]: 21% | inhibition [20]: 7% | inhibition [21]: 13% | inhibition [22]: 4% | inhibition [23]: 22% | inhibition [24]: 22%
